# Experimental data published in ChEMBL document CHEMBL1201862, “PubChem BioAssay data set” (2004).
# Active and inactive are the calls of the source.
# How the values were obtained:
# cells = format: functional
# [1] = NIH-3T3 fibroblast cytotoxicity, dose response, cytotoxicity control, cell-based, fluorescence, Alamar Blue, secondary assay (AID 2327); format: functional;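 further: NIH-3T3 mouse fibroblasts cultured with fluconazole at 8 µg/mL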
# [2] = fluconazole-exposed Candida albicans growth modulators – fluorescence, retest, confirmation (AID 2467); format: functional, cell-based
# INS1 = assay: INS-1E survival protection against cytokine death – cell-based, luminescence, retest, dose response (AID 449756); format: functional; settings: Rattus norvegicus, INS1;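 further: cell death triggered by IL-1 beta plus TNF-alpha plus IFN-gamma mixture; protective hits raise ATP signal compared with cytokine alone wells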
# [3] = P. falciparum Dd2 growth inhibitors, dose response, SYBR Green, cherry-picked samples (AID 1159567); format: functional, cell-based
# [4] = target: T1, Carboxy-terminal domain RNA polymerase II polypeptide A small phosphatase 1 (Homo sapiens, UniProt Q9GZU7); assay: CTDSP1 inhibitors, concentration-response, biochemical, absorbance readout, ultra-high-throughput screen actives (AID 540297); format: functional
# T1 sequence (Q9GZU7 whole entry): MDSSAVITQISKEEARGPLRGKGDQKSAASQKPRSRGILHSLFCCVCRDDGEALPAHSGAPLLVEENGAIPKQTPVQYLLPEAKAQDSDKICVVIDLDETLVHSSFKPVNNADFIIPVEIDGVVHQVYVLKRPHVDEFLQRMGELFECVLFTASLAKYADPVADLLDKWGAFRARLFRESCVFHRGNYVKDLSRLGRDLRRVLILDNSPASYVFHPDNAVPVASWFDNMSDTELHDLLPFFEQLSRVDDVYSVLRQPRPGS
# [5] = viability of uninfected HEp-2 cells – cell-based, HTS, cytotoxicity control for RSV inhibitor project, dose response (AID 2410); format: functional; settings: human respiratory syncytial virus
# Genome polyprotein = Genome polyprotein (dengue virus type 2, UniProt P29990); assay: flavivirus cap methylation enzyme inhibition – biochemical, confirmation dose response, primary screen (AID 588689); format: functional
# Chain of Genome polyprotein (P29990 2492-3391 limits assumed): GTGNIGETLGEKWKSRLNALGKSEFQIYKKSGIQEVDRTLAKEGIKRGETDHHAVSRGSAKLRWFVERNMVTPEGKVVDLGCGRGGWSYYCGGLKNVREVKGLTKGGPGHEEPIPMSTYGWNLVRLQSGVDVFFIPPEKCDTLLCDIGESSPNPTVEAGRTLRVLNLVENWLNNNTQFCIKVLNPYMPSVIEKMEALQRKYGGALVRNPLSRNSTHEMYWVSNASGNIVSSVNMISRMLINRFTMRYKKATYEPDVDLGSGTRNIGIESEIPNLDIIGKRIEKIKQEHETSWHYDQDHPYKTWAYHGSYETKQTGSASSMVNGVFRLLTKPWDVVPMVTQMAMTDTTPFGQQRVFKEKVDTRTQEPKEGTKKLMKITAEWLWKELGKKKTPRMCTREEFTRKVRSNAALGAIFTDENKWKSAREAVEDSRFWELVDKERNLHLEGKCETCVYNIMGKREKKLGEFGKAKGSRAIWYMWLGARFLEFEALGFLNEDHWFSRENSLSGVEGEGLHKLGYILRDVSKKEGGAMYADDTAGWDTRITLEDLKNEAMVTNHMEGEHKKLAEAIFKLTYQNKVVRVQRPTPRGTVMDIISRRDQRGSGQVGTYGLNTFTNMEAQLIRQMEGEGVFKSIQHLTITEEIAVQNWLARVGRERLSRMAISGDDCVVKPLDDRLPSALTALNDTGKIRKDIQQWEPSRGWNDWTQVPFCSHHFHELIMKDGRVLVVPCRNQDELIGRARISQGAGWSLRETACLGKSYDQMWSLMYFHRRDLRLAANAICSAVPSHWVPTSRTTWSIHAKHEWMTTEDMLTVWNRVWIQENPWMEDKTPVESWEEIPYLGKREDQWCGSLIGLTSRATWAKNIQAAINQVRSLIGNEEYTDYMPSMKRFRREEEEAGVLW
# [6] = target: T2, Rac GTPase-activating protein 1 (Homo sapiens, UniProt Q9H0H5); assay: blockers of MgcRacGAP-driven Rac1 GTP hydrolysis – biochemical, ADP Hunter fluorescence, primary and confirmatory, confirmation (AID 624330); format: functional
# T2 sequence (Q9H0H5 whole entry): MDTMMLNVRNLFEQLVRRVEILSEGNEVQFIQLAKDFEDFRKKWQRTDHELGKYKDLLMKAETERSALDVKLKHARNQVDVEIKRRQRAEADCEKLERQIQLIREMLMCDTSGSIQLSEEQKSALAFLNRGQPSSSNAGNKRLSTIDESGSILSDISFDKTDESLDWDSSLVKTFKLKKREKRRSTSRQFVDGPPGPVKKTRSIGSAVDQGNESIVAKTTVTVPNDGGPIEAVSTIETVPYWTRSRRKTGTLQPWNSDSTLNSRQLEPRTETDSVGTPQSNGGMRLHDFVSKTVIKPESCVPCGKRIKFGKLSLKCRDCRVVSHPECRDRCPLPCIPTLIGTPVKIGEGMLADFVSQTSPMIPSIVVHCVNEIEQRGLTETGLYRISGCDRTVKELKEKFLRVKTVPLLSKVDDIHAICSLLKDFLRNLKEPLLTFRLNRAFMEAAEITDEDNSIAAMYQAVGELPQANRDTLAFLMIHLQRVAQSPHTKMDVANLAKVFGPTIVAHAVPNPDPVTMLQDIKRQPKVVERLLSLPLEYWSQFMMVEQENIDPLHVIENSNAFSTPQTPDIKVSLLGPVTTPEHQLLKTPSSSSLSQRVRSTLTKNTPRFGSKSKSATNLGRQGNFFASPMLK
# [7] = target: Glucose-6-phosphate 1-dehydrogenase (Homo sapiens, UniProt P11413); assay: inhibition of Homo sapiens G6PD, dose series – biochemical, fluorescence, selectivity assay for P. falciparum G6PD inhibitor project, dose response (AID 504792); format: functional
# Chain of Glucose-6-phosphate 1-dehydrogenase (P11413 whole entry, the tested form may be a part): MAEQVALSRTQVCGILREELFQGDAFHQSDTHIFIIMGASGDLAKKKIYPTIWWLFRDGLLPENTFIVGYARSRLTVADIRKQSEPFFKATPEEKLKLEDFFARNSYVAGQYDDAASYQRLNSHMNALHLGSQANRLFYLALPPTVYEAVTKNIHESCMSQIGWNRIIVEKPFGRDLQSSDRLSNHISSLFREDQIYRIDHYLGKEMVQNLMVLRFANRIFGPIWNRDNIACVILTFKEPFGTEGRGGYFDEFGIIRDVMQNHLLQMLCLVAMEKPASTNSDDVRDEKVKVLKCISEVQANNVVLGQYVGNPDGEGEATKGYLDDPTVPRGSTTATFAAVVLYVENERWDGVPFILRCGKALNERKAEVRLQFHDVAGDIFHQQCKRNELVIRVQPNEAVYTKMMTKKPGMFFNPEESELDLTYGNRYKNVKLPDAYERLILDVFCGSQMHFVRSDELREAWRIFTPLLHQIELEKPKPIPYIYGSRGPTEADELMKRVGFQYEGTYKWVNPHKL
# [8] = target: T3, RNA-binding protein pos-1 (Caenorhabditis elegans, UniProt G5EF15); assay: disruptors of C. elegans POS-1 RNA interaction – biochemical, fluorescence polarization, dose response (AID 1964);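 further: purified POS-1 fused to maltose binding protein made in E. coli; potency of compounds blocking POS-1 binding to fluorescent RNA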
# T3 sequence (G5EF15 whole entry): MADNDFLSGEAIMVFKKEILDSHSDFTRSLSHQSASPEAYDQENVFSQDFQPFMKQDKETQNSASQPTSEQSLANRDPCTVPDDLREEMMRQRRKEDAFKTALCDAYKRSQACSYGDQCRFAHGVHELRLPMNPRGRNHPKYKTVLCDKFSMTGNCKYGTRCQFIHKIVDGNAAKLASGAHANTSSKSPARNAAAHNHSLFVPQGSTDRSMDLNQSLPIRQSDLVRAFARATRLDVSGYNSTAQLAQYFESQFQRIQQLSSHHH
# [9] = target: T4, Zinc finger protein mex-5 (Caenorhabditis elegans, UniProt Q9XUB2); assay: potency of MEX-5 RNA-binding blockers – biochemical, C. elegans, fluorescence polarization, dose response (AID 1960)
# T4 sequence (Q9XUB2 whole entry): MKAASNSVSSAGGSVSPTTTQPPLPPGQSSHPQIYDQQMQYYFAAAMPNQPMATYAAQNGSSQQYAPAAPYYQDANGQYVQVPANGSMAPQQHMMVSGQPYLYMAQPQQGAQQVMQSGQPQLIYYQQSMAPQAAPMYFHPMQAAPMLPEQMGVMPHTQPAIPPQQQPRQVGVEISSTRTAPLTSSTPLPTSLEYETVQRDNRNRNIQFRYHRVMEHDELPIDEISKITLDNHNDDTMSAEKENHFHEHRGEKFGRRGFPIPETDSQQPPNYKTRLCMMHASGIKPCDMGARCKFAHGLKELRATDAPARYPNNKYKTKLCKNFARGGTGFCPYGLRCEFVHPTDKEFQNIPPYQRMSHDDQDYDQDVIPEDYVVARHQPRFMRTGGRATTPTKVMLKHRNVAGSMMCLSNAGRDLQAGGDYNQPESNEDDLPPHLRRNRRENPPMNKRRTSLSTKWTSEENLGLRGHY
# [10] = target: T5, Heat shock factor protein 1 (Mus musculus, UniProt P38532); assay: decrease of HSF1-responsive luciferase luminescence – cell-based, NIH3T3, dose retest, confirmation (AID 2382); format: functional;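 further: NIH3T3 fibroblasts with HSF1-driven luciferase reporter stressed by proteasome inhibitor MG132; luminescence from HSF1-driven luciferase expression after 8 hours of MG132 stress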
# T5 sequence (P38532 whole entry): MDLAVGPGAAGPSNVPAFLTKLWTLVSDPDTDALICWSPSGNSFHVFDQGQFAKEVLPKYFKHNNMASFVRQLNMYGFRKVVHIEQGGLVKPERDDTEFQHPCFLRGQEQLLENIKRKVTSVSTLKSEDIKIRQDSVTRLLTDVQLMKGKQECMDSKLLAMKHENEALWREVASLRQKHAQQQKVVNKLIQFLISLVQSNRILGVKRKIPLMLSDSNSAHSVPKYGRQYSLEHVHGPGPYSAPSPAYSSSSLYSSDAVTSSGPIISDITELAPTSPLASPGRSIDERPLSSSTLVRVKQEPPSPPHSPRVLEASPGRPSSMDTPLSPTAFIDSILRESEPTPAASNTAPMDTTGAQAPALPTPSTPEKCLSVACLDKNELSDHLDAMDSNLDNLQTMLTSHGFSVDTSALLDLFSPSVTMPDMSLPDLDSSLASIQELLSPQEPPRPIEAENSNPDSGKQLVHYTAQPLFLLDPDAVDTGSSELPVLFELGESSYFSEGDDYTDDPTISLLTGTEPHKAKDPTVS
# Protein skinhead-1 = target: T6, Protein skinhead-1 (Caenorhabditis elegans, UniProt P34707); format: functional
# T6 sequence (P34707 whole entry): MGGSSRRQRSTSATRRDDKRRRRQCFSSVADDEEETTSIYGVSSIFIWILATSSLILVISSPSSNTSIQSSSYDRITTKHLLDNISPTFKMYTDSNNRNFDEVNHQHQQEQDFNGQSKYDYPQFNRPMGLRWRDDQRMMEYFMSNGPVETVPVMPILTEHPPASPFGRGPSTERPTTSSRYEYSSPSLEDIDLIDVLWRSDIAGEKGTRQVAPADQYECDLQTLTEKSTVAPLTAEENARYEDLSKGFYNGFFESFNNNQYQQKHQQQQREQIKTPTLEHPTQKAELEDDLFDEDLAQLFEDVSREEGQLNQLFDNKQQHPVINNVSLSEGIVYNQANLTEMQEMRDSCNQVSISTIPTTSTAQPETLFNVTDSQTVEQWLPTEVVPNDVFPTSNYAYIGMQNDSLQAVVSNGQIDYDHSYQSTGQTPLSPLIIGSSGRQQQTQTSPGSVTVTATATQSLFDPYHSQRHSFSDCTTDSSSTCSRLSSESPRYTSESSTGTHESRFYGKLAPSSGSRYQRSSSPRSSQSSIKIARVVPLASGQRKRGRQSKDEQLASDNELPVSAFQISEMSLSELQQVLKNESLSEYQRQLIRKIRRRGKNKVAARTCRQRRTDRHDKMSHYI
# [11] = target: T5, Heat shock factor protein 1; assay: enhancement of HSF1-driven luciferase signal – cell-based, NIH3T3, luminescence, dose retest, confirmation (AID 435004); format: functional;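 further: stress induced by proteasome inhibitor MG132 added 30 min after compound; luciferase reporter driven by HSF1 response element in NIH3T3 cells; actives raise luminescence as potentiators of the MG132 stress response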
# BJ [12] = assay: BJ-TERT fibroblast viability loss – cell-based, RAS-independent, luminescence, dose response (AID 1933); format: functional; settings: Homo sapiens
# BJ [13] = assay: cells; format: functional, cell-based; settings: Homo sapiens
# BJ [14] = assay: BJ-TERT-LT-ST fibroblast viability loss – cell-based, RAS-independent, luminescence, dose response (AID 1935); format: functional; settings: Homo sapiens;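 further: BJ fibroblasts immortalized with TERT plus LT and ST oncogenes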
# [15] = DRD fibroblast viability loss – cell-based, non-viral oncogenic, luminescence, dose response (AID 1934); format: functional; settings: Homo sapiens
structure (smiles),measurement,setting,value
COC(=O)COc1cccc(NC(=O)c2cccc(C)c2)c1,IC50,cells,17.6 µM (active)
CCN(CC)c1ccc(/N=C/c2ccc([N+](=O)[O-])o2)cc1,EC50,[1],> 150 µM (inactive)
same,EC50,[2],> 38 µM (not active)
same,AC50,INS1,43.9 µM (active)
N#Cc1cccc(-c2ccc3c(c2)[C@@H]2[C@@H](CCN2Cc2cncnc2)[C@H](CO)N3)c1,AC50,[3],6.32 µM (active)
COc1ccccc1C#Cc1ccc([C@@H]2[C@H](C#N)N(C(=O)C3CCCC3)[C@H]2CO)cc1,AC50,[3],5.17 µM (active)
N=c1oc2ccccc2cc1C(=O)NC1CCCCCC1,IC50,cells,> 50 µM (active)
O=C(Nc1cccc(S(=O)(=O)NC2=NCCCCC2)c1)C1COc2ccccc2O1 (stereo not given),IC50,[4],5.75 µM (active)
C[N+]1(C)CC2([N+](=O)[O-])CC=C(Oc3ccccc3)C([N+](=O)[O-])(C2)C1 (stereo not given),IC50,[4],6.82 µM (active)
Cc1ccc2nc(C)c3c(c2c1)SCC3,IC50,cells,24.6 µM (active)
CC(C)(C)C(=O)O/N=C1/C(=O)N(c2ccccc2)c2ccccc21,CC50,[5],26.5 µM (active)
same,IC50,[4],7.51 µM (active)
Cc1ccc(C(C2=C(O)CC(C)(C)CC2=O)C2C(=O)CC(C)(C)CC2=O)o1 (stereo not given),IC50,Genome polyprotein,60 µM (active)
same,IC50,[6],56.4 µM (active)
CCOC(=O)N1CCC(N2Cc3cccc(C(=O)NCc4ccc5c(c4)OCO5)c3C2=O)CC1,IC50,[4],15 µM (active)
COc1cccc(CN2C[C@@H]3N[C@H](C2)[C@H]3c2ccc(-c3ccncc3)cc2)c1,AC50,[3],7.31 µM (active)
O=c1[nH]c2ccc(NCc3ccccc3OCc3ccc(Cl)cc3)cc2[nH]1,IC50,[7],> 80 µM (inactive)
O=C(O)c1ccc2c(c1Nc1ccccc1)C(=O)c1ccccc1C2=O,IC50,Genome polyprotein,> 100 µM (active)
Cc1cc(C(=O)O)ccc1-n1c(C)cc(C=C2C(=O)c3ccccc3C2=O)c1C,EC50,[8],> 300 µM (not active)
same,EC50,[9],> 300 µM (not active)
same,IC50,[7],> 80 µM (inactive)
CCC(=O)N1[C@H](CO)[C@@H](c2ccccc2-c2cccc(C)c2)[C@@H]1C#N,AC50,[3],> 42 µM (inactive)
Cc1c(C(=O)NNC(=O)c2csc(N3CCOCC3)n2)oc2ccccc12,IC50,cells,13.2 µM (active)
CC(C)OP(=O)(c1ccc(N(C)C)cc1)C(O)c1ccccc1 (stereo not given),EC50,[1],> 160 µM (inconclusive)
same,EC50,[2],3.06 µM (active)
Cc1ccc(OC(=O)c2sc3ncn(C)c(=O)c3c2C)cc1,IC50,cells,15.2 µM (active)
C/C=C/c1ccc([C@@H]2[C@H](CO)N(CC3CC3)C23CN(C(=O)c2ccc4c(c2)OCO4)C3)cc1,AC50,[3],4.44 µM (active)
C/C(=N/Nc1ccc(C)cc1)C1(C)N(O)C(C)(C)C(c2ccco2)=[N+]1[O-] (stereo not given),EC50,[1],66.1 µM (inconclusive)
same,EC50,[2],> 38 µM (not active)
c1ccc(OCCSc2nc3ccccc3o2)cc1,EC50,[10],> 195 µM (not active)
same,IC50,Protein skinhead-1,32.4 µM (active)
CCCC#Cc1ccc2c(c1)[C@@H]1[C@@H](CCN1S(=O)(=O)c1ccccc1C)[C@@H](CO)N2,AC50,[3],7.51 µM (active)
Cc1ccc(NC(=O)COc2ccc(/C=N\NC(=O)c3cccnc3)cc2)cc1C,IC50,[4],10 µM (active)
COc1cc(NCCCn2ccc(NC(=O)OCc3ccccc3)nc2=O)cc(OC)c1OC,IC50,[7],> 80 µM (inactive)
COc1ccc(C(O)(C(=O)NNc2ccc(C)cc2)c2cccs2)cc1 (stereo not given),EC50,[1],> 160 µM (inactive)
same,EC50,[2],> 38 µM (not active)
same,EC50,[11],> 260 µM (inactive)
O=C1N=C(Nc2ccc(Cl)cc2)/C(=C/c2ccco2)S1,IC50,[4],1.86 µM (active)
Cc1ccc(C(=O)CC(=O)COc2ccc(Cl)cc2)cc1,EC50,[1],> 150 µM (inconclusive)
same,EC50,[2],1.62 µM (active)
O=C(NN=Cc1cc(Br)c(O)c(Br)c1)c1ccccc1NS(=O)(=O)c1cccs1,IC50,Genome polyprotein,27.7 µM (active)
CCn1c(COc2ccc(=O)n(-c3ccccc3)n2)nnc1SCc1cccc(OC)c1,EC50,[1],> 160 µM (inactive)
same,EC50,[2],> 38 µM (not active)
O=C1/C(=C/c2ccccc2Cl)SC(=S)N1CCC(=O)N1CCCCC1CCO (stereo not given),EC50,BJ [12],19 µM (active)
same,EC50,BJ [13],> 150 µM (inconclusive)
same,EC50,BJ [14],> 150 µM (not active)
same,EC50,[15],45.3 µM (active)
same,EC50,[11],> 260 µM (inactive)
COc1cccc(C(=O)C2CCCN(Cc3cccc4c3OCO4)C2)c1 (stereo not given),EC50,[1],> 160 µM (inactive)
same,EC50,[2],> 38 µM (not active)
